Data reported in the supplement of paper PMC10307832.

Tests used:
Assay in all cases: relative viability (nuclei count vs DMSO), 5 days (fraction); higher = more cells survive
BAM7 + Palbociclib = compound: CCOC1=CC=CC=C1N=NC2=C(NN(C2=O)C3=NC(=CS3)C4=CC=CC=C4)C [BAM7] + CC(=O)c1c(C)c2cnc(Nc3ccc(N4CCNCC4)cn3)nc2n(C2CCCC2)c1=O [Palbociclib] (partner 0.5 µM)
In short: (§1)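 Relative viability divides the nuclei count in treated wells by that in vehicle wells. Lung cancer cell lines were seeded in 1536-well plates, dosed by pin tool the next day, and fixed and stained after 5 days in one step with final 0.05% Triton X-100, 1% formaldehyde and 1 ug/ml Hoechst. Dosing was a single drug or a fixed anchor-drug dose plus five library-drug doses (not always all listed) in √10 steps, and values are medians of duplicate plates imaged at 4×.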

BAM7 + Navitoclax = compound: CCOC1=CC=CC=C1N=NC2=C(NN(C2=O)C3=NC(=CS3)C4=CC=CC=C4)C [BAM7] + CC1(C)CCC(c2ccc(Cl)cc2)=C(CN2CCN(c3ccc(C(=O)NS(=O)(=O)c4ccc(N[C@H](CCN5CCOCC5)CSc5ccccc5)c(S(=O)(=O)C(F)(F)F)c4)cc3)CC2)C1 [Navitoclax] (partner 0.5 µM)
In short: as §1

[1] = compound: CCn1c(-c2nonc2N)nc2c(C#CC(C)(C)O)ncc(OC[C@H]3CCCNC3)c21 + C[C@@H](Oc1cc(-c2cnn(C3CCNCC3)c2)cnc1N)c1c(Cl)ccc(F)c1Cl [Crizotinib] (partner 1 µM)
In short: as §1

[2] = compound: CCn1c(-c2nonc2N)nc2c(C#CC(C)(C)O)ncc(OC[C@H]3CCCNC3)c21 + C[C@]1(O)C[C@@H](c2nc(-c3ccc4ccc(-c5ccccc5)nc4c3)c3c(N)nccn32)C1 [Linsitinib] (partner 1 µM)
In short: as §1

Cell Line	relative viability (BAM7 + Palbociclib; first compound 0.5 µM)	relative viability (BAM7 + Palbociclib; first compound 5 µM)	relative viability (BAM7 + Palbociclib; first compound 15.81 µM)	relative viability (BAM7 + Palbociclib; first compound 50 µM)	relative viability (BAM7 + Navitoclax; first compound 0.5 µM)	relative viability (BAM7 + Navitoclax; first compound 5 µM)	relative viability (BAM7 + Navitoclax; first compound 15.81 µM)	relative viability (BAM7 + Navitoclax; first compound 50 µM)	relative viability ([1]; first compound 0.01 µM)	relative viability ([1]; first compound 0.03162 µM)	relative viability ([1]; first compound 0.1 µM)	relative viability ([1]; first compound 0.3162 µM)	relative viability ([1]; first compound 1 µM)	relative viability ([2]; first compound 0.01 µM)	relative viability ([2]; first compound 0.03162 µM)	relative viability ([2]; first compound 0.1 µM)	relative viability ([2]; first compound 0.3162 µM)	relative viability ([2]; first compound 1 µM)
NCI-H2228	0.853	0.966	1.19	1.07	0.985	1.4	0.818	1.27	0.552	0.56	0.476	0.378	0.33	0.682	0.65	0.645	0.585	0.475
NCI-H2347	0.426	0.457	0.425	0.367	0.765	0.918	0.806	0.861	0.7	0.815	0.723	0.708	0.813	1.05	0.983	0.958	0.904	0.991
NCI-H2405	0.507	0.577	0.546	0.553	0.946	1.11	0.747	1	0.888	0.911	0.704	0.798	0.848	0.924	1.06		0.794	1.02
NCI-H3122	0.174	0.225	0.186	0.198	1.07	0.984	1.06	1.07	0.276	0.312	0.264	0.283	0.276	1.05	0.944	0.972	1.01	1.03
PC-3 [JPC-3]	0.49	0.533	0.462	0.531	0.688	0.815	0.755	0.626	0.944	0.988	1.04	0.909	0.993	0.959	0.933	0.98	0.927	0.932
PC-14	0.592	0.479	0.335	0.42	1.05	1.09	1	0.938	0.925	0.863	0.944	0.94	0.839	0.967	0.975	0.963	0.849	0.919
RERF-LC-KJ	0.953	0.876	0.609	0.63	0.908	0.805	0.907	0.847	0.808	0.788	0.815	0.829	0.837	0.91	0.871	0.855	0.856	0.903
SK-LU-1	0.399	0.405	0.43	0.453	0.487	1.01	0.8	0.827	1.11	0.817	0.925	0.978	0.987	1.06	1.23	1.22	1.19	1.09
SK-MES-1	0.332	0.35	0.308	0.272	1.37	1.36	1.23	1.23	0.989	0.982	0.963	0.909	0.982	1.07	1.11	1.05	1.03	1
